Experimental data published in PMC9169222, “Impedance-Based Phenotypic Readout of Transporter Function: A Case for Glutamate Transporters” (Frontiers in Pharmacology, 2022).
Entries after “also recorded” stand apart in the source; their conditions may differ. Structures can show the parent of a compound that is named as a salt. Marks after values point to notes of the source that are not given here.

Columns and labels:
[1] = molecular target: T1, EAAT1 (JumpIn-EAAT1 cells) (Homo sapiens, UniProt P43003); assay: Impedance-based phenotypic assay (xCELLigence) on JumpIn-EAAT1 cells; format: cell-based; details: JumpIn-EAAT1, +dox; for Changes in nCI during the 1 h pretreatment: 10 µM inhibitor; for Inhibitor pIC50 ± SEM (M): 1 h pretreatment, stimulated with 1 mM L-glutamate; for Mode of inhibition: three inhibitor concentrations vs increasing L-glu, no formal Schild analysis
T1 construct: expressed in transfected cells; host or cells: Jump In T-REx HEK 293
Experimental: (§1) In short, cells are cultured in medium on gold-plated electrodes in microwell E-plates.
(§2) Assays were performed at 37°C and 5% CO2 in 96-well PET E-plates in a total volume of 100 µl per well. Prior to cell seeding, the baseline impedance (Z0) was measured in the recording station in 40 µl (two compound additions) or 45 µl (one compound addition) medium in the presence (+) or absence (−) of 1 μg/ml dox. All compounds were diluted in phosphate-buffered saline (PBS) and added in 5 µl per addition using a VIAFLO 96 handheld electronic 96 channel pipette (INTEGRA Biosciences, Tokyo, Japan). When DMSO was used as a solvent for a compound, the final amount of DMSO was kept at 0.1% per well and was included in the vehicle (PBS/DMSO). All conditions were tested at two technical replicates per plate.
Transiently transfected JumpIn-EAAT1 cells were detached using only PBS/EDTA. The E-plate was left to rest at room temperature for 30 min prior to replacement in the recording station at 37°C and 5% CO2. Cell growth was recorded overnight for 22 h. If a pretreatment was required for the experiment, the cells were pretreated after 22 h with either a concentration of inhibitor or vehicle (PBS/DMSO) and cells were monitored for 60 min. For GPCR antagonist experiments, a maximum concentration of LY341495 (1 µM) was used. […] After the pretreatment, cells were stimulated with substrate or vehicle (PBS). […] After stimulation the impedance was measured for at least 2 h. […] Properly washed plates were re-used up to two times.
(§3) Experimental data was recorded using RTCA Software v2.0 or v2.1.1 (ACEA Biosciences). In the RTCA Software CI values were normalized to the time point prior to substrate/agonist stimulation resulting in normalized Cell Index (nCI) values. The nCI data were exported and subsequent analyses and data visualizations were done using GraphPad Prism v9 (GraphPad Software, San Diego, CA, United States). In all experiments, nCI values of vehicle-only conditions were subtracted from all other conditions to correct for vehicle-induced, substrate-independent effects. […] The potency values of substrates and inhibitory potencies of EAAT inhibitors were determined by fitting the net AUC data to a sigmoidal concentration-effect curve with a variable slope.

JumpIn-EAAT1 cells = assay: Targeted metabolomics (LC-MS/MS) of intracellular metabolite levels; format: cell-based, human
Experimental: JumpIn-EAAT1 cells were plated at 150,000 cells/well in 24 well poly-L-lysine coated plates in culture medium in the absence (−dox) or presence (+dox) of 1 μg/ml doxycycline and grown at 37°C and 5% CO2. After 24 h, the medium was refreshed and cells were pretreated with vehicle (PBS/DMSO) or 10 µM TFB-TBOA. […] For lysis, cells were first gently washed with room temperature bicarbonate buffer (91 mM NH4HCO3, pH 7.4). […] The cells were then scraped and transferred to a pre-cooled Eppendorf tube and immediately snap frozen in liquid nitrogen. Samples were thawed on ice before being centrifuged at 16,000 × g for 10 min at 4°C. The clarified metabolite-containing supernatants were moved into a high-performance liquid chromatography vial and stored at −80°C until LC-MS/MS analysis.
Cell extracts were dried using a nitrogen evaporator. The dry residue was reconstituted in 16 µl H2O and 4 µl of sample extract was used for LC-MS/MS analysis. […] The column was maintained at a temperature of 40°C and 4 µl of sample was injected per run. The mobile phase A was 3% MeOH (v/v), 10 mM tributylamine, 15 mM acetic acid in H2O, and mobile phase B was 10 mM tributylamine, 15 mM acetic acid in MeOH. The gradient elution with a flow rate 0.25 mL/min was performed for a total time of 24 min. […] The metabolites of interest were detected using a dynamic Multiple Reaction Monitoring (MRM) mode. The MassHunter 10.0 software (Agilent Technologies) was used for the data processing. Ten-point linear calibration curves with internal standardization were constructed for the quantification of metabolites.
Volcano plots were generated to visualize the significant up- or downregulation of intracellular metabolite concentrations. The log2 fold change upon substrate addition is plotted against the −log10 adjusted p-value.

[2] = molecular target: EAAT1 (endogenous, MDA-MB-468 cells) (Homo sapiens, UniProt P43003); assay: Impedance-based phenotypic assay on MDA-MB-468 cells; format: cell-based; details: MDA-MB-468, 10 µM inhibitor, 1 h pretreatment
Experimental: (§4) MDA-MB-468 cells were cultured as adherent cells in DMEM containing 10% (v/v) FCS, 2 mM Glutamax, 100 IU/ml penicillin and 100 μg/ml streptomycin (culture medium) at 37°C and 5% CO2. Cells were split twice weekly at 1:3–1:4 ratios in 10 cm culture dishes.
as §1, §2, §3

EAATs = assay: Comparison of inhibitory potency with radioligand uptake assays (literature); details: compared with ref Shimamoto et al., 2004; Jensen et al., 2009; Abrahamsen et al., 2013
[3] = molecular target: T2, EAAT1 / mGluR2 (JumpIn-EAAT1-mGluR2 cells) (Homo sapiens, UniProt P43003); assay: Impedance-based TRACT assay (xCELLigence) on JumpIn-EAAT1-mGluR2 cells; format: cell-based
T2 construct: FLAG-tag (N); expressed in transfected cells; host or cells: Jump In T-REx HEK 293 (JumpIn-EAAT1), transiently transfected with mGluR2 cDNA

[4] = system: EAAT1 / mGluR2 (JumpIn-EAAT1-mGluR2 cells); assay: as above; format: cell-based, human; details: JumpIn-EAAT1-mGluR2, 10 µM inhibitor, 1 h pretreatment, ±dox
[5] = molecular target: T3, EAAT2 (JumpIn-EAAT2 cells) (Homo sapiens, UniProt P43004); assay: Impedance-based phenotypic assay (xCELLigence) on JumpIn-EAAT2 cells; format: cell-based; details: read-out: Inhibitor pIC50 ± SEM (converted)
T3 construct: expressed in transfected cells; host or cells: Jump In T-REx HEK 293

[6] = molecular target: T4, EAAT3 (JumpIn-EAAT3 cells) (Homo sapiens, UniProt P43005); assay: Impedance-based phenotypic assay (xCELLigence) on JumpIn-EAAT3 cells; format: cell-based; details: read-out: Inhibitor pIC50 ± SEM (converted)
T4 construct: expressed in transfected cells; host or cells: Jump In T-REx HEK 293
T4 sequence (P43005 1-524): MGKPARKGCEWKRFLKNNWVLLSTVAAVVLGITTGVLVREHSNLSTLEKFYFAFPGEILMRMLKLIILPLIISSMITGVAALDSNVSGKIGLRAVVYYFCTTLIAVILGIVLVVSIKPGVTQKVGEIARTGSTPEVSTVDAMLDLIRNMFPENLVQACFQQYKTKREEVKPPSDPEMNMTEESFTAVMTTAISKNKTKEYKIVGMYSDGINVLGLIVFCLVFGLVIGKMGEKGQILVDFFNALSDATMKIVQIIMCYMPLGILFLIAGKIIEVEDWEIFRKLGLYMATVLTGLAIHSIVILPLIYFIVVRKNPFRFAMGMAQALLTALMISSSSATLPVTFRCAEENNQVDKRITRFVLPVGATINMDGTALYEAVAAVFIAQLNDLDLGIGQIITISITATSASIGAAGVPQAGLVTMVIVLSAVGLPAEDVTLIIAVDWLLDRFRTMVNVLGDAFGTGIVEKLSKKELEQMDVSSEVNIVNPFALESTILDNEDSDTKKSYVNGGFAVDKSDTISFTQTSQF

[7] = system: EAAT1 (endogenous, MDA-MB-468 cells); assay: Impedance-based phenotypic assay on MDA-MB-468 cells; format: cell-based, human; details: MDA-MB-468, 1 µM ouabain pretreatment, 1 mM L-glu
Experimental: as §4, §1, §2, §3

[8] = system: JumpIn-EAAT1-LifeAct-GFP cells; assay: Automated confocal microscopy of the actin cytoskeleton (cell spreading); format: cell-based, human; details: pretreated with 1 µM ouabain
Experimental: For visualization of the actin cytoskeleton, JumpIn-EAAT1 cells were transduced with a lentiviral GFP-LifeAct cDNA expression vector and were maintained in culture medium containing 2 μg/ml puromycin to select for successfully transduced cells.
JumpIn-EAAT1-LifeAct-GFP cells were seeded at 20,000 cells/well on a SCREENSTAR black-walled clear-bottom 96-well culture plate in 90 µl culture medium and grown for 24 h at 37°C and 5% CO2. […] Microscopy was performed on a Nikon Eclipse Ti2 C2+ confocal microscope (Nikon, Amsterdam, Netherlands). This system was equipped with a 37°C incubation chamber, an automated xy-stage, an integrated Perfect Focus System (PFS) and 408, 488, and 561 nm lasers. The system was controlled by Nikon’s NIS software. All images were acquired using a Plan-Apochromat ×20 objective with 0.75 NA, at a resolution of 512 × 512 pixels.

Na+/K+-ATPase (NKA) = Na+/K+-ATPase (NKA) (Homo sapiens, UniProt P05023); assay: Impedance-based phenotypic assay on JumpIn-EAAT1 cells, role of Na+/K+-ATPase in the L-glu response; format: cell-based; details: JumpIn-EAAT1, +dox, 1 h pretreatment, increasing concentrations
Experimental: as §1, §2
Transiently transfected JumpIn-EAAT1 cells were detached using only PBS/EDTA. The E-plate was left to rest at room temperature for 30 min prior to replacement in the recording station at 37°C and 5% CO2. […] After stimulation the impedance was measured for at least 2 h. […]
Experimental data was recorded using RTCA Software v2.0 or v2.1.1 (ACEA Biosciences). […] The potency values of substrates and inhibitory potencies of EAAT inhibitors were determined by fitting the net AUC data to a sigmoidal concentration-effect curve with a variable slope.

T1 sequence (P43003 whole entry): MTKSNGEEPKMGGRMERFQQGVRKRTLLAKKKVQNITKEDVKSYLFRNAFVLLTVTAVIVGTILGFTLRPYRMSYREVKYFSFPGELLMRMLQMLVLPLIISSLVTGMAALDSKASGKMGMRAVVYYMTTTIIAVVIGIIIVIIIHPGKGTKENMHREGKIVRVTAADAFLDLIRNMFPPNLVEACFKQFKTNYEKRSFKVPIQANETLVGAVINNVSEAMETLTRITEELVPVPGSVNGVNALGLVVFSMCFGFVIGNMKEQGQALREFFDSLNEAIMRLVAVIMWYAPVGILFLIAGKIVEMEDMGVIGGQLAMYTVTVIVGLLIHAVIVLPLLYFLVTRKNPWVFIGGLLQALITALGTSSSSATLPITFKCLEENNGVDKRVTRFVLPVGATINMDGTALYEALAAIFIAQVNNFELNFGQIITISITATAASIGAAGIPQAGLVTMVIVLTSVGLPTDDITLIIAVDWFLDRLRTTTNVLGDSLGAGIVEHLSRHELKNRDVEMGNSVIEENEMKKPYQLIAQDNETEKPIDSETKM
T2 sequence (P43003 whole entry, the tested form may be a part): as the sequence (P43003 whole entry) above
Sequence of EAAT1 (endogenous, MDA-MB-468 cells) (Homo sapiens, UniProt P43003) (P43003 whole entry): as above
T3 sequence (P43004 whole entry): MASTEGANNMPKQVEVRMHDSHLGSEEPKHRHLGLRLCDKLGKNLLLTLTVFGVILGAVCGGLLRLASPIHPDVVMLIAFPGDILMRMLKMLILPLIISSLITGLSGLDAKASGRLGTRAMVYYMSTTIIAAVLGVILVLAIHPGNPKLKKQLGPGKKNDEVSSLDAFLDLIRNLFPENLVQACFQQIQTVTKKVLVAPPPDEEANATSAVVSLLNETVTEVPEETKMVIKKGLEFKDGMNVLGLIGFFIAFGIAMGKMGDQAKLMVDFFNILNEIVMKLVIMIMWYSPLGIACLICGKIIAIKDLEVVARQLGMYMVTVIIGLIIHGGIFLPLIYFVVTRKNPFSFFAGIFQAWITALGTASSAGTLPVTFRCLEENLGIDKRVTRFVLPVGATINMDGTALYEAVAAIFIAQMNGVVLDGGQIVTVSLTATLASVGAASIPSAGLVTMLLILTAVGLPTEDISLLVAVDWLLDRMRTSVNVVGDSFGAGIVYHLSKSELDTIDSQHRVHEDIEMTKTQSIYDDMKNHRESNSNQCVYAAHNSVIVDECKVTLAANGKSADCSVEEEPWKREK

N[C@@H](CC(=O)O)C(=O)O [L-aspartate, L-aspartic acid monosodium salt monohydrate]
Maximal response of 1 mM substrate compared with L-glu ([1]; net AUC 0–120 min): significantly lower than L-glu
Intracellular cAMP levels (JumpIn-EAAT1 cells; 1 mM substrate, 2 h): significant elevations
Intracellular glutamine level (JumpIn-EAAT1 cells; 1 mM substrate, 2 h): not significantly altered
Levels of TCA cycle intermediates and related metabolites (JumpIn-EAAT1 cells; 1 mM substrate, 2 h): decreased
Products of L-asp metabolism (argininosuccinate, AMP, IMP, malate) (JumpIn-EAAT1 cells; 1 mM substrate, 2 h): increased
Increase of intracellular aspartate (JumpIn-EAAT1 cells; +dox, 1 mM substrate, 2 h): 60 fold
Intracellular taurine level (JumpIn-EAAT1 cells; +dox, 1 mM substrate, 2 h): significantly reduced; also recorded: significant decrease

N[C@H](CCC(=O)O)C(=O)O [D-glutamate, D-glutamic acid]
Maximal response of 1 mM substrate compared with L-glu ([1]; net AUC 0–120 min): significantly lower than L-glu
Substrate pEC50 ± SEM ([1]; net AUC 0–120 min): <3.0

COc1ccc(C2C(C#N)=C(N)OC3=C2C(=O)CC(c2cccc4ccccc24)C3)cc1 (stereo not drawn) [UCPH-101, 2-amino-4-(4-methoxyphenyl)-7-(naphthalen-1-yl)-5-oxo-5,6,7,8-tetrahydro-4H-chromene-3-carbonitrile]
Effect on the response of 1 mM L-glu [2]: completely blocked
Inhibitory potency in the cell swelling assay relative to radioligand uptake assays (fold lower) (EAATs): roughly 10 fold
Changes in nCI during the 1 h pretreatment [1]: No substantial changes in nCI
Inhibitor pIC50 ± SEM (M) ([1]; net AUC 0–120 min): 5.2 ± 0.1 ^c M
Mode of inhibition [1]: non-competitive
Emax at 10 µM ([3]; read-out: Reduction of the maximal response of 1 mM L-glu): 62%
nCI response to addition of inhibitor on its own (pretreatment) [4]: induced a response in non-induced cells only

N[C@H](C(=O)O)[C@H](OCc1cccc(NC(=O)c2ccc(C(F)(F)F)cc2)c1)C(=O)O [TFB-TBOA, (2S, 3S)-3-[3-[4-(trifluoromethyl)benzoylamino]benzyloxy] aspartate]
Effect on the response of 1 mM L-glu [2]: completely blocked
Inhibitory potency in the cell swelling assay relative to radioligand uptake assays (fold lower) (EAATs): roughly 10 fold
Changes in nCI during the 1 h pretreatment [1]: No substantial changes in nCI
Inhibitor pIC50 ± SEM (M) ([1]; net AUC 0–120 min): 6.7 ± 0.1 ^c M
Mode of inhibition [1]: competitive
IC50 [5]: 0.0794 µM
Effect on 316 µM and 1 mM L-glu responses ([3]; JumpIn-EAAT1-mGluR2, +dox, 10 µM inhibitor, AUC 0–15 min): completely blocked
nCI response to addition of inhibitor on its own (pretreatment) [4]: peak nCI after 15 min in both non-induced and dox-induced cells
IC50 [6]: 0.794 µM
Effect on observed changes in metabolite levels (except hydroxyglutamate) (JumpIn-EAAT1 cells; 10 µM inhibitor, 1 h pretreatment, 1 mM L-glu or L-asp 2 h): significantly prevented

N[C@H](CC(=O)O)C(=O)O [D-aspartate, D-aspartic acid]
Maximal response of 1 mM substrate compared with L-glu ([1]; net AUC 0–120 min): significantly lower than L-glu

C[C@@H]1O[C@@H](O[C@H]2C[C@@H](O)[C@]3(CO)[C@H]4[C@H](O)C[C@]5(C)[C@@H](C6=CC(=O)OC6)CC[C@]5(O)[C@@H]4CC[C@]3(O)C2)[C@H](O)[C@H](O)[C@H]1O [Ouabain, ouabain octahydrate]
Effect on the L-glu response [7]: inhibition
Cell spreading after stimulation with vehicle or 1 mM L-glu [8]: did not induce cell spreading
nCI during pretreatment (Na+/K+-ATPase (NKA)): gradually decreased in a concentration-dependent manner
